Experimental data published in ChEMBL document CHEMBL1201862, “PubChem BioAssay data set” (2004).
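Five concentrations, 48 hours, 96-well plates. The concentration for 50% growth inhibition is given as GI50.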 Calls of active or inactive are those of the source. No stated cut-off is given here; in the data, active = GI50 up to about 1.1 µM and inactive = higher.

Key:
Test in all cases: NCI tumour cell line growth inhibition, 48 h
[1] = test system: A498
[2] = test system: NCI-H23
[3] = test system: T47D
[4] = test system: OVCAR-5
[5] = test system: Hs-578T
[6] = test system: Malme-3M
[7] = test system: COLO 205
[8] = test system: OVCAR-4
[9] = test system: KM12
[10] = test system: NCI/ADR-RES
[11] = test system: SR
[12] = test system: A549
[13] = test system: BT-549
[14] = test system: MDA-N
[15] = test system: NCI-H226
[16] = test system: NCI-H460
[17] = test system: SF-295
[18] = test system: SF-539
[19] = test system: UACC-257
[20] = test system: NCI-H522

Structure (SMILES) | GI50 [1] | GI50 [2] | GI50 [3] | GI50 [4] | GI50 [5] | GI50 [6] | GI50 [7] | GI50 [8] | GI50 [9] | GI50 [10] | GI50 [11] | GI50 [12] | GI50 [13] | GI50 [14] | GI50 [15] | GI50 [16] | GI50 [17] | GI50 [18] | GI50 [19] | GI50 [20]
C=CC(=O)N1C/C(=C\c2ccc([N+](=O)[O-])cc2)C(=O)/C(=C/c2ccc([N+](=O)[O-])cc2)C1 | 0.28 µM (active) | 0.256 µM (active) | 0.419 µM (active) | 0.29 µM (active) | < 0.0422 µM (active) | 0.201 µM (active) | 0.0483 µM (active) | 0.233 µM (active) | 0.175 µM (active) | 0.258 µM (active) | 0.289 µM (active) | 0.427 µM (active) | 0.194 µM (active) | 0.169 µM (active) | 0.2 µM (active) | 0.147 µM (active) | 0.208 µM (active) | < 0.019 µM (active) | 0.794 µM (active) | –
Nc1ccn(C2OC(COC(=O)C34CC5CC(CC(C5)C3)C4)C(O)C2O)c(=O)n1 (configuration not stated) | > 45.5 µM (inactive) | 12.2 µM (inactive) | > 100 µM (inactive) | > 100 µM (inactive) | > 100 µM (inactive) | > 100 µM (inactive) | 59 µM (inactive) | > 100 µM (inactive) | > 100 µM (inactive) | > 100 µM (inactive) | – | 0.773 µM (active) | > 100 µM (inactive) | > 100 µM (inactive) | > 100 µM (inactive) | 0.392 µM (active) | > 100 µM (inactive) | > 100 µM (inactive) | > 100 µM (inactive) | 10.7 µM (inactive)
O=C(O)C(Cc1ccccc1)Cc1ccccc1 | > 100 µM (inactive) | > 100 µM (inactive) | > 100 µM (inactive) | > 100 µM (inactive) | 7.48 µM (inactive) | > 100 µM (inactive) | > 100 µM (inactive) | > 100 µM (inactive) | > 100 µM (inactive) | > 100 µM (inactive) | – | > 100 µM (inactive) | > 100 µM (inactive) | > 100 µM (inactive) | > 100 µM (inactive) | > 100 µM (inactive) | > 100 µM (inactive) | > 100 µM (inactive) | > 100 µM (inactive) | > 100 µM (inactive)
O=C(O)c1cccc(CN2CCCCC2)c1 | > 100 µM (inactive) | > 100 µM (inactive) | > 100 µM (inactive) | > 100 µM (inactive) | > 100 µM (inactive) | > 100 µM (inactive) | > 100 µM (inactive) | > 100 µM (inactive) | > 100 µM (inactive) | > 100 µM (inactive) | – | > 100 µM (inactive) | > 100 µM (inactive) | > 100 µM (inactive) | > 100 µM (inactive) | > 100 µM (inactive) | > 100 µM (inactive) | – | > 100 µM (inactive) | > 100 µM (inactive)
Clc1ccc(C2=C(c3ccccc3)C(c3ccc(Cl)cc3)N3C(=N[C@H]4CCCC[C@@H]43)N2)cc1 (some centres not stated) | 17.3 µM (inactive) | 14.2 µM (inactive) | 15.6 µM (inactive) | 16.3 µM (inactive) | 19.4 µM (inactive) | 16.5 µM (inactive) | 6.64 µM (inactive) | 9.2 µM (inactive) | 9.4 µM (inactive) | 11.4 µM (inactive) | 2.09 µM (inactive) | 10.3 µM (inactive) | 14.6 µM (inactive) | 14.7 µM (inactive) | 21 µM (inactive) | 2.99 µM (inactive) | 11.6 µM (inactive) | 15.3 µM (inactive) | 14.9 µM (inactive) | –
Cc1ccc(-n2cnc3c(N)nc(N)nc32)cc1 | > 100 µM (inactive) | > 100 µM (inactive) | > 100 µM (inactive) | > 100 µM (inactive) | 42.7 µM (inactive) | > 100 µM (inactive) | > 100 µM (inactive) | > 100 µM (inactive) | 42.6 µM (inactive) | > 100 µM (inactive) | – | 69.5 µM (inactive) | > 100 µM (inactive) | > 100 µM (inactive) | > 100 µM (inactive) | – | > 100 µM (inactive) | > 100 µM (inactive) | > 100 µM (inactive) | > 100 µM (inactive)
CC(=O)NCCCCN(CCCNC(C)=O)C(=O)OCc1ccccc1 | > 100 µM (inactive) | > 100 µM (inactive) | > 100 µM (inactive) | > 100 µM (inactive) | > 100 µM (inactive) | > 100 µM (inactive) | > 100 µM (inactive) | > 100 µM (inactive) | > 100 µM (inactive) | > 100 µM (inactive) | – | > 100 µM (inactive) | > 100 µM (inactive) | > 100 µM (inactive) | > 100 µM (inactive) | > 100 µM (inactive) | > 100 µM (inactive) | > 100 µM (inactive) | > 100 µM (inactive) | > 100 µM (inactive)
COC(=O)c1c(O)ccc2c1c1c(n2Cc2ccccn2)C(=O)c2ccccc2C1=O | > 100 µM (inactive) | 57.1 µM (inactive) | 32 µM (inactive) | 56.8 µM (inactive) | 46.1 µM (inactive) | 31.2 µM (inactive) | 14.5 µM (inactive) | – | 46.2 µM (inactive) | 41.3 µM (inactive) | 22 µM (inactive) | 29.8 µM (inactive) | > 100 µM (inactive) | 97.5 µM (inactive) | 70.1 µM (inactive) | 40.3 µM (inactive) | 20.2 µM (inactive) | 17.1 µM (inactive) | > 100 µM (inactive) | 15.8 µM (inactive)
OCCOCCN1CCN(c2nc(N3CCCC3)c3nc(Cl)c(NCc4ccccc4)nc3n2)CC1 | – | 16.3 µM (inactive) | 13.2 µM (inactive) | 15.1 µM (inactive) | 17.7 µM (inactive) | 15.8 µM (inactive) | 7.35 µM (inactive) | 15 µM (inactive) | 10.1 µM (inactive) | 14.5 µM (inactive) | 4.38 µM (inactive) | 13 µM (inactive) | 15.3 µM (inactive) | 10.3 µM (inactive) | 20.8 µM (inactive) | 11.5 µM (inactive) | 14.5 µM (inactive) | 24.8 µM (inactive) | 14.1 µM (inactive) | 15.4 µM (inactive)
CCOC(=O)/C(C(N)=O)=C(O)/C(O)=C/C(=O)c1ccc(Cl)cc1 | > 100 µM (inactive) | 18.3 µM (inactive) | 18.6 µM (inactive) | 23.5 µM (inactive) | 42.1 µM (inactive) | 17.9 µM (inactive) | 17.8 µM (inactive) | 34.4 µM (inactive) | 17.3 µM (inactive) | 21.4 µM (inactive) | 21.7 µM (inactive) | 32.4 µM (inactive) | 18 µM (inactive) | 14.8 µM (inactive) | 23.2 µM (inactive) | 16 µM (inactive) | 29.2 µM (inactive) | – | 16 µM (inactive) | 16.2 µM (inactive)
Cc1ccc([N+](=O)[O-])cc1S(=O)(=O)Nc1ccc(C(=O)/C=C/c2ccccc2)cc1 | – | 16.7 µM (inactive) | 16.3 µM (inactive) | 25.6 µM (inactive) | 50.6 µM (inactive) | 18.5 µM (inactive) | 20.6 µM (inactive) | 1.96 µM (inactive) | 16.7 µM (inactive) | 22 µM (inactive) | 22.1 µM (inactive) | 23.3 µM (inactive) | 17.7 µM (inactive) | 20.2 µM (inactive) | 28.6 µM (inactive) | 18.1 µM (inactive) | 20.3 µM (inactive) | 30.5 µM (inactive) | 17.3 µM (inactive) | 20.2 µM (inactive)
Cc1n[nH]c(C(F)(F)F)c1/N=N/N(C)C | > 100 µM (inactive) | 5.73 µM (inactive) | 2.23 µM (inactive) | – | 15.6 µM (inactive) | 16.6 µM (inactive) | 2.98 µM (inactive) | – | 7.57 µM (inactive) | 7.13 µM (inactive) | 4.47 µM (inactive) | 18.4 µM (inactive) | 11.7 µM (inactive) | > 100 µM (inactive) | 1.95 µM (inactive) | 10.5 µM (inactive) | 12.1 µM (inactive) | 5.28 µM (inactive) | 14.7 µM (inactive) | 1.37 µM (inactive)
CC(C)(Br)C(Br)CCC1(C2CO2)CO1 (configuration not stated) | > 5 µM (inactive) | > 5 µM (inactive) | > 5 µM (inactive) | – | > 5 µM (inactive) | > 5 µM (inactive) | > 5 µM (inactive) | > 5 µM (inactive) | – | > 5 µM (inactive) | – | > 5 µM (inactive) | > 5 µM (inactive) | > 5 µM (inactive) | > 5 µM (inactive) | – | > 5 µM (inactive) | > 5 µM (inactive) | > 5 µM (inactive) | > 5 µM (inactive)
CN(Cc1ccccc1)c1cc(=O)n(C)c(=O)[nH]1 | 58.2 µM (inactive) | > 100 µM (inactive) | > 100 µM (inactive) | > 100 µM (inactive) | > 100 µM (inactive) | > 100 µM (inactive) | > 100 µM (inactive) | > 100 µM (inactive) | – | > 100 µM (inactive) | – | > 100 µM (inactive) | > 100 µM (inactive) | > 100 µM (inactive) | > 100 µM (inactive) | > 100 µM (inactive) | > 100 µM (inactive) | > 100 µM (inactive) | > 100 µM (inactive) | > 100 µM (inactive)
Cc1ccc(C(=O)Cn2c(C(=O)/C=C/c3cccs3)nc3ccccc32)cc1 | 32.1 µM (inactive) | 29.9 µM (inactive) | > 100 µM (inactive) | > 100 µM (inactive) | 20.7 µM (inactive) | 24.5 µM (inactive) | 41.1 µM (inactive) | 29.5 µM (inactive) | 24.2 µM (inactive) | 23.2 µM (inactive) | 6.68 µM (inactive) | 32.6 µM (inactive) | 34.4 µM (inactive) | 28.1 µM (inactive) | > 100 µM (inactive) | 22.4 µM (inactive) | – | > 100 µM (inactive) | 24.4 µM (inactive) | –
